According to patent US9993464B2 (SANOFI, priority 2011, dated 2018):
“And” between values parts separate entries of the source, which are not always exact repeats. Equal entries are not always repeated. Where two headings read alike, the source gives them in different places.

Key:
[1] = tested on: models of thrombosis; details: porcine; cited from earlier work
[2] = molecular target: T1, factor Xa (Homo sapiens, UniProt P00742); details: patients with stable coronary artery disease; cited from earlier work
T1 construct: host or cells: blood of patients (in vivo, clinical trial)
T1 sequence (P00742 235-488 limits assumed): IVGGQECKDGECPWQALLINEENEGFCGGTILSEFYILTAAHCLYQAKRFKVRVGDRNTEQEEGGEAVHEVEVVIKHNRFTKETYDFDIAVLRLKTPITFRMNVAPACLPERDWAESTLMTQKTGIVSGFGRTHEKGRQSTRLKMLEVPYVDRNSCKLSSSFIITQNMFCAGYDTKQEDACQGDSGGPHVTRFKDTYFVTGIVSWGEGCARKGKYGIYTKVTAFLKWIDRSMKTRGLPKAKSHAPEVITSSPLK
T1 sequence (P00742 41-179 partner limits assumed): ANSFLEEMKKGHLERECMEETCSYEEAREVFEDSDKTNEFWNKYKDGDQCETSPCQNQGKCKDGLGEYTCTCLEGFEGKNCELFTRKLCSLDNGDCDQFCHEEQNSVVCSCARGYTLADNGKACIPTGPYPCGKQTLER

[3] = Level of impurities in dependency on pH and storage time (HPLC), Example 8; assay type: physicochemical; details: 40° C./75% RH
Protocol: The appropriate pH value was adjusted by using sodium hydroxide solution (1 M sodium hydroxide) or diluted hydrochloric acid (1 M hydrochloric acid). The prepared vials were autoclaved one time and were stored at 40° C. and 75% RH (relative humidity).

[4] = tested on: models of thrombosis; details: rodent; cited from earlier work
[5] = Level of impurities in dependency on Otamixaban concentration and autoclaving (HPLC), Example 7; assay type: physicochemical; details: autoclaving
Excerpt: The appropriate pH value was adjusted by using sodium hydroxide solution (1 M sodium hydroxide) or diluted hydrochloric acid (1 M hydrochloric acid).

[6] = Level of impurities in dependency on pH and repeated autoclaving (HPLC), Example 6; assay type: physicochemical
Protocol: The appropriate pH value was adjusted by using sodium hydroxide solution (1 M sodium hydroxide) or diluted hydrochloric acid (1 M hydrochloric acid). […] HP Zorbax SB-C18, 3.5 μm • Column material: stainless steel • Column length: 150 mm • Column internal diameter: 4.6 mm • Equilibration of the column: Column must be rinsed with mobile phase B (% B=25) for at least 60 minutes at a flow rate of 1 mL/min prior to sample injection. • Storage of the column: Column can be stored in acetonitrile/water=20/80 (v/v) Mobile Phase A […] The mobile phase was filtered through a 1.5 μm filter. Typically, add 500 mL of mobile phase A to 500 mL of acetonitrile. Mix and degas. [table] Procedure • Flow rate: 1 mL/min • Injection volume: 40 μl • Auto sampler temperature: Set autosampler temperature at +12° C. • Column temperature: […]

[7] = tested on: acute coronary syndrome; details: humans; cited from earlier work
[8] = tested on: prothrombin fragments 1+2; details: dose-ranging clinical trial; highest dose regimen; cited from earlier work
[9] = tested on: models of thrombosis; details: canine; cited from earlier work
[10] = pH 2.5, number of autoclaving 0
[11] = pH 2.5, number of autoclaving 1
[12] = pH 3.2, number of autoclaving 0
[13] = pH 3.2, number of autoclaving 1
[14] = pH 3.2, number of autoclaving 3
[15] = pH 3.5, number of autoclaving 0
[16] = pH 3.5, number of autoclaving 1
[17] = pH 3.7, number of autoclaving 0
[18] = pH 3.7, number of autoclaving 1
[19] = pH 3.7, number of autoclaving 3
[20] = pH 4.0, number of autoclaving 0
[21] = pH 4.0, number of autoclaving 1
[22] = pH 4.2, number of autoclaving 0
[23] = pH 4.5, number of autoclaving 0
[24] = pH 4.5, number of autoclaving 1
[25] = pH 4.7, number of autoclaving 0
[26] = pH 4.7, number of autoclaving 2

COC(=O)[C@H](Cc1cccc(C(=N)N)c1)[C@@H](C)NC(=O)c1ccc(-c2cc[n+]([O-])cc2)cc1 (mixture of isomers) [Otamixaban, Methyl (2R,3R)-2-{3-[amino(imino)methyl]benzyl}-3-{[4-(1-oxidopyridin-4-yl)benzoyl]amino}butanoate]
efficacy in models of thrombosis [1]: highly efficacious | factor Xa inhibition in patients [2]: dose-dependent, rapid direct factor Xa inhibition | Increase of Formula II (carbamimidoyl-benzyl butyric acid) ([3]; pH 2.5, storage time 0 months): 0.33% | Increase of Formula III (carbamoyl-benzyl butyric acid methyl ester) ([3]; pH 2.5, storage time 0 months): 0.71% | Increase of Formula III (carbamoyl-benzyl butyric acid methyl ester) ([3]; pH 2.5, storage time 1 months): 0.77% | Increase of Formula III (carbamoyl-benzyl butyric acid methyl ester) ([3]; pH 2.5, storage time 3 months): 0.86% | Increase of Formula II (carbamimidoyl-benzyl butyric acid) ([3]; pH 2.5, storage time 6 months): 7.10% | Increase of Formula III (carbamoyl-benzyl butyric acid methyl ester) ([3]; pH 2.5, storage time 6 months): 0.98% | Increase of Formula II (carbamimidoyl-benzyl butyric acid) ([3]; pH 3.0, storage time 0 months): 0.18% | Increase of Formula III (carbamoyl-benzyl butyric acid methyl ester) ([3]; pH 3.0, storage time 0 months): 0.74% | Increase of Formula II (carbamimidoyl-benzyl butyric acid) ([3]; pH 3.0, storage time 1 months): 0.58% | Increase of Formula III (carbamoyl-benzyl butyric acid methyl ester) ([3]; pH 3.0, storage time 1 months): 0.82% | Increase of Formula III (carbamoyl-benzyl butyric acid methyl ester) ([3]; pH 3.0, storage time 3 months): 0.96% | Increase of Formula II (carbamimidoyl-benzyl butyric acid) ([3]; pH 3.2, storage time 0 months): 0.15% | Increase of Formula III (carbamoyl-benzyl butyric acid methyl ester) ([3]; pH 3.2, storage time 0 months): 0.76% | Increase of Formula II (carbamimidoyl-benzyl butyric acid) ([3]; pH 3.2, storage time 1 months): 0.41% | Increase of Formula III (carbamoyl-benzyl butyric acid methyl ester) ([3]; pH 3.2, storage time 1 months): 0.85% | Increase of Formula II (carbamimidoyl-benzyl butyric acid) ([3]; pH 3.2, storage time 3 months): 0.93% | Increase of Formula III (carbamoyl-benzyl butyric acid methyl ester) ([3]; pH 3.2, storage time 3 months): 1.00% | Increase of Formula II (carbamimidoyl-benzyl butyric acid) ([3]; pH 3.5, storage time 0 months): 0.12% | Increase of Formula III (carbamoyl-benzyl butyric acid methyl ester) ([3]; pH 3.5, storage time 0 months): 0.81% | Increase of Formula II (carbamimidoyl-benzyl butyric acid) ([3]; pH 3.5, storage time 1 months): 0.27% | Increase of Formula III (carbamoyl-benzyl butyric acid methyl ester) ([3]; pH 3.5, storage time 1 months): 0.91% | Increase of Formula II (carbamimidoyl-benzyl butyric acid) ([3]; pH 3.5, storage time 3 months): 0.55% | Increase of Formula II (carbamimidoyl-benzyl butyric acid) ([3]; pH 3.5, storage time 6 months): 0.99% | Increase of Formula II (carbamimidoyl-benzyl butyric acid) ([3]; pH 3.7, storage time 0 months): 0.11% | Increase of Formula III (carbamoyl-benzyl butyric acid methyl ester) ([3]; pH 3.7, storage time 0 months): 0.87% | Increase of Formula II (carbamimidoyl-benzyl butyric acid) ([3]; pH 3.7, storage time 1 months): 0.22% | Increase of Formula III (carbamoyl-benzyl butyric acid methyl ester) ([3]; pH 3.7, storage time 1 months): 0.96% | Increase of Formula II (carbamimidoyl-benzyl butyric acid) ([3]; pH 3.7, storage time 3 months): 0.42% | Increase of Formula II (carbamimidoyl-benzyl butyric acid) ([3]; pH 3.7, storage time 6 months): 0.72% | Increase of Formula II (carbamimidoyl-benzyl butyric acid) ([3]; pH 4.0, storage time 0 months): 0.12% | Increase of Formula III (carbamoyl-benzyl butyric acid methyl ester) ([3]; pH 4.0, storage time 0 months): 0.95% | Increase of Formula II (carbamimidoyl-benzyl butyric acid) ([3]; pH 4.0, storage time 1 months): 0.18% | Increase of Formula II (carbamimidoyl-benzyl butyric acid) ([3]; pH 4.0, storage time 3 months): 0.32% | Increase of Formula II (carbamimidoyl-benzyl butyric acid) ([3]; pH 4.0, storage time 6 months): 0.52% | Increase of Formula II (carbamimidoyl-benzyl butyric acid) ([3]; pH 4.2, storage time 0 months): 0.13% | Increase of Formula II (carbamimidoyl-benzyl butyric acid) ([3]; pH 4.2, storage time 1 months): 0.18% | Increase of Formula III (carbamoyl-benzyl butyric acid methyl ester) ([3]; pH 4.2, storage time 1 months): 1.20% | Increase of Formula II (carbamimidoyl-benzyl butyric acid) ([3]; pH 4.2, storage time 3 months): 0.27% | Increase of Formula II (carbamimidoyl-benzyl butyric acid) ([3]; pH 4.2, storage time 6 months): 0.43% | Increase of Formula II (carbamimidoyl-benzyl butyric acid) ([3]; pH 4.5, storage time 0 months): 0.15% | Increase of Formula III (carbamoyl-benzyl butyric acid methyl ester) ([3]; pH 4.5, storage time 0 months): 1.40% | Increase of Formula II (carbamimidoyl-benzyl butyric acid) ([3]; pH 4.5, storage time 1 months): 0.20% | Increase of Formula II (carbamimidoyl-benzyl butyric acid) ([3]; pH 4.5, storage time 3 months): 0.30% | Increase of Formula II (carbamimidoyl-benzyl butyric acid) ([3]; pH 4.5, storage time 6 months): 0.44% | Increase of Formula II (carbamimidoyl-benzyl butyric acid) ([3]; pH 4.7, storage time 0 months): 0.20% | Increase of Formula II (carbamimidoyl-benzyl butyric acid) ([3]; pH 4.7, storage time 1 months): 0.25% | Increase of Formula II (carbamimidoyl-benzyl butyric acid) ([3]; pH 4.7, storage time 3 months): 0.36% | Increase of Formula II (carbamimidoyl-benzyl butyric acid) ([3]; pH 4.7, storage time 6 months): 0.52% | efficacy in models of thrombosis [4]: highly efficacious | dependence of Formula III level on Otamixaban concentration or vial volume [5]: independent from the concentration of Otamixaban or vial volume | Increase of Formula II (carbamimidoyl-benzyl butyric acid) [6, 10]: 0.10% | Increase of Formula III (carbamoyl-benzyl butyric acid methyl ester) [6, 10]: 0.39% | Increase of Formula II (carbamimidoyl-benzyl butyric acid) [6, 11]: 0.33% | Increase of Formula III (carbamoyl-benzyl butyric acid methyl ester) [6, 11]: 0.71% | Increase of Formula II (carbamimidoyl-benzyl butyric acid) ([6]; pH 2.5, number of autoclaving 2): 0.56% | Increase of Formula III (carbamoyl-benzyl butyric acid methyl ester) ([6]; pH 3.0, number of autoclaving 0): 0.39% | Increase of Formula III (carbamoyl-benzyl butyric acid methyl ester) ([6]; pH 3.0, number of autoclaving 1): 0.74% | Increase of Formula II (carbamimidoyl-benzyl butyric acid) [6, 12]: 0.08% | Increase of Formula III (carbamoyl-benzyl butyric acid methyl ester) [6, 12]: 0.39% | Increase of Formula II (carbamimidoyl-benzyl butyric acid) [6, 13]: 0.15% | Increase of Formula III (carbamoyl-benzyl butyric acid methyl ester) [6, 13]: 0.76% | Increase of Formula II (carbamimidoyl-benzyl butyric acid) ([6]; pH 3.2, number of autoclaving 2): 0.21% | Increase of Formula II (carbamimidoyl-benzyl butyric acid) [6, 14]: 0.27% | Increase of Formula III (carbamoyl-benzyl butyric acid methyl ester) [6, 14]: 1.50% | Increase of Formula II (carbamimidoyl-benzyl butyric acid) [6, 15]: 0.08% | Increase of Formula III (carbamoyl-benzyl butyric acid methyl ester) [6, 15]: 0.39% | Increase of Formula II (carbamimidoyl-benzyl butyric acid) [6, 16]: 0.12% | Increase of Formula III (carbamoyl-benzyl butyric acid methyl ester) [6, 16]: 0.81% | Increase of Formula II (carbamimidoyl-benzyl butyric acid) ([6]; pH 3.5, number of autoclaving 2): 0.17% | Increase of Formula II (carbamimidoyl-benzyl butyric acid) ([6]; pH 3.5, number of autoclaving 3): 0.21% | Increase of Formula II (carbamimidoyl-benzyl butyric acid) [6, 17]: 0.08% | Increase of Formula III (carbamoyl-benzyl butyric acid methyl ester) [6, 17]: 0.39% | Increase of Formula II (carbamimidoyl-benzyl butyric acid) [6, 18]: 0.11% and 0.12% | Increase of Formula III (carbamoyl-benzyl butyric acid methyl ester) [6, 18]: 0.87% and 0.84% | Increase of Formula II (carbamimidoyl-benzyl butyric acid) ([6]; pH 3.7, number of autoclaving 2): 0.16% | Increase of Formula II (carbamimidoyl-benzyl butyric acid) [6, 19]: 0.20% and 0.19% | Increase of Formula III (carbamoyl-benzyl butyric acid methyl ester) [6, 19]: 1.80% | Increase of Formula II (carbamimidoyl-benzyl butyric acid) [6, 20]: 0.08% | Increase of Formula III (carbamoyl-benzyl butyric acid methyl ester) [6, 20]: 0.39% | Increase of Formula II (carbamimidoyl-benzyl butyric acid) [6, 21]: 0.12% | Increase of Formula III (carbamoyl-benzyl butyric acid methyl ester) [6, 21]: 0.95% | Increase of Formula II (carbamimidoyl-benzyl butyric acid) ([6]; pH 4.0, number of autoclaving 2): 0.16% | Increase of Formula II (carbamimidoyl-benzyl butyric acid) ([6]; pH 4.0, number of autoclaving 3): 0.19% | Increase of Formula II (carbamimidoyl-benzyl butyric acid) [6, 22]: 0.07% | Increase of Formula III (carbamoyl-benzyl butyric acid methyl ester) [6, 22]: 0.39% | Increase of Formula II (carbamimidoyl-benzyl butyric acid) ([6]; pH 4.2, number of autoclaving 1): 0.13% | Increase of Formula II (carbamimidoyl-benzyl butyric acid) ([6]; pH 4.2, number of autoclaving 2): 0.18% | Increase of Formula II (carbamimidoyl-benzyl butyric acid) ([6]; pH 4.2, number of autoclaving 3): 0.22% | Increase of Formula II (carbamimidoyl-benzyl butyric acid) [6, 23]: 0.08% | Increase of Formula III (carbamoyl-benzyl butyric acid methyl ester) [6, 23]: 0.39% | Increase of Formula II (carbamimidoyl-benzyl butyric acid) [6, 24]: 0.15% | Increase of Formula III (carbamoyl-benzyl butyric acid methyl ester) [6, 24]: 1.40% | Increase of Formula II (carbamimidoyl-benzyl butyric acid) ([6]; pH 4.5, number of autoclaving 2): 0.24% | Increase of Formula II (carbamimidoyl-benzyl butyric acid) ([6]; pH 4.5, number of autoclaving 3): 0.30% | Increase of Formula II (carbamimidoyl-benzyl butyric acid) [6, 25]: 0.08% | Increase of Formula III (carbamoyl-benzyl butyric acid methyl ester) [6, 25]: 0.39% | Increase of Formula II (carbamimidoyl-benzyl butyric acid) ([6]; pH 4.7, number of autoclaving 1): 0.20% | Increase of Formula II (carbamimidoyl-benzyl butyric acid) [6, 26]: 0.32% | Increase of Formula III (carbamoyl-benzyl butyric acid methyl ester) [6, 26]: 3.20% | Increase of Formula II (carbamimidoyl-benzyl butyric acid) ([6]; pH 4.7, number of autoclaving 3): 0.43% | clinical findings: efficacy, safety, tolerability [7]: efficacious, safe and well tolerated | reduction of prothrombin fragments 1+2 versus unfractionated heparin [8]: reduced prothrombin fragments 1+2 significantly more than unfractionated heparin | efficacy in models of thrombosis [9]: highly efficacious
